The results in this text go back to patent publication US10472336B2, “Modulators of indoleamine 2,3-dioxygenase” (GlaxoSmithKline Intellectual Property (No.2) Limited, priority 2015, dated 2019).

Structures are written as SMILES. Where a name gives a salt, the structure may show the parent alone.

For test [1], the target named is T1, indoleamine 2, 3-dioxygenase (IDO1) (Homo sapiens, UniProt P14902). Kind of test: PBMC IDOi assay (kynurenine detection by mass spectrometry). The class given is cell-based. Conditions: IFN-γ and LPS stimulated human PBMC, 2 days. As for the experimental part:
(§1) Compounds of the present invention were tested via high-throughput cellular assays utilizing detection of kynurenine via mass spectrometry and cytotoxicity as end-points. For the mass spectrometry and cytotoxicity assays, human peripheral blood mononuclear cells (PBMC) (PB003F; AllCells®, Alameda, Calif.) were stimulated with human interferon-γ (IFN-γ) (Sigma-Aldrich Corporation, St. Louis, Mo.) and lipopolysaccharide from Salmonella minnesota (LPS) (Invivogen, San Diego, Calif.) to induce the expression of indoleamine 2, 3-dioxygenase (IDO1). Compounds with IDO1 inhibitory properties decreased the amount of kynurenine produced by the cells via the tryptophan catabolic pathway. Cellular toxicity due to the effect of compound treatment was measured using CellTiter-Glo® reagent (CTG) (Promega Corporation, Madison, Wis.), which is based on luminescent detection of ATP, an indicator of metabolically active cells.
(§2) In preparation for the assays, test compounds were serially diluted 3-fold in DMSO from a typical top concentration of 5 mM and plated at 0.5 μL in 384-well, polystyrene, clear bottom, tissue culture treated plates with lids (Greiner Bio-One, Kremsmünster, Austria) to generate 11-point dose response curves. Low control wells (0% kynurenine or 100% cytotoxicity) contained either 0.5 μL of DMSO in the presence of unstimulated (−IFN-γ/−LPS) PBMCs for the mass spectrometry assay or 0.5 μL of DMSO in the absence of cells for the cytotoxicity assay, and high control wells (100% kynurenine or 0% cytotoxicity) contained 0.5 μL of DMSO in the presence of stimulated (+IFN-γ/+LPS) PBMCs for both the mass spectrometry and cytotoxicity assays.
Frozen stocks of PBMCs were washed and recovered in RPMI 1640 medium (Thermo Fisher Scientific, Inc., Waltham, Mass.) supplemented with 10% v/v heat-inactivated fetal bovine serum (FBS) (Thermo Fisher Scientific, Inc., Waltham, Mass.), and 1× penicillin-streptomycin antibiotic solution (Thermo Fisher Scientific, Inc., Waltham, Mass.). The cells were diluted to 1,000,000 cells/mL in the supplemented RPMI 1640 medium. 50 μL of either the cell suspension, for the mass spectrometry assay, or medium alone, for the cytotoxicity assay, were added to the low control wells, on the previously prepared 384-well compound plates, resulting in 50,000 cells/well or 0 cells/well respectively. IFN-γ and LPS were added to the remaining cell suspension at final concentrations of 100 ng/ml and 50 ng/ml respectively, and 50 μL of the stimulated cells were added to all remaining wells on the 384-well compound plates. The plates, with lids, were then placed in a 37° C., 5% CO2 humidified incubator for 2 days.
(§3) Following incubation, the 384-well plates were removed from the incubator and allowed to equilibrate to room temperature for 30 minutes. For the cytotoxicity assay, CellTiter-Glo® was prepared according to the manufacturer's instructions, and 40 μL were added to each plate well. After a twenty minute incubation at room temperature, luminescence was read on an EnVision® Multilabel Reader (PerkinElmer Inc., Waltham, Mass.). For the mass spectrometry assay, 10 μL of supernatant from each well of the compound-treated plates were added to 40 μL of acetonitrile, containing 10 μM of an internal standard for normalization, in 384-well, polypropylene, V-bottom plates (Greiner Bio-One, Kremsmünster, Austria) to extract the organic analytes. Following centrifugation at 2000 rpm for 10 minutes, 10 μL from each well of the acetonitrile extraction plates were added to 90 μL of sterile, distilled H2O in 384-well, polypropylene, V-bottom plates for analysis of kynurenine and the internal standard on the RapidFire 300 (Agilent Technologies, Santa Clara, Calif.) and 4000 QTRAP MS (SCIEX, Framingham, Mass.). MS data were integrated using Agilent Technologies' RapidFire Integrator software, and data were normalized for analysis as a ratio of kynurenine to the internal standard. […]

Test [2] addresses T1, indoleamine 2, 3-dioxygenase (IDO1). Kind of test: HeLa IDOi assay (kynurenine detection by mass spectrometry). The class given is cell-based. The arrangement: human epithelial HeLa cells (CCL-2; host or cells: HeLa cells stimulated with human IFN-γ. Conditions: IFN-γ stimulated human epithelial HeLa cells, 2 days. As for the experimental part: as §1, with “epithelial HeLa” for “peripheral blood mononuclear”, “(CCL-2; ATCC®, Manassas, Va.)” for “(PBMC) (PB003F; AllCells®, Alameda, Calif.)”, “Mo.)” for “Mo.) and lipopolysaccharide from Salmonella minnesota (LPS) (Invivogen, San Diego, Calif.)”
as §2, with “(−IFN-γ) HeLa cells” for “(−IFN-γ/−LPS) PBMCs”, “(+IFN-γ) HeLa cells” for “(+IFN-γ/+LPS) PBMCs”
Frozen stocks of HeLa cells were washed and recovered in DMEM high glucose medium with HEPES (Thermo Fisher Scientific, Inc., Waltham, Mass.) supplemented with 10% v/v certified fetal bovine serum (FBS) (Thermo Fisher Scientific, Inc., Waltham, Mass.), and 1× penicillin-streptomycin antibiotic solution (Thermo Fisher Scientific, Inc., Waltham, Mass.). The cells were diluted to 100,000 cells/mL in the supplemented DMEM medium. 50 μL of either the cell suspension, for the mass spectrometry assay, or medium alone, for the cytotoxicity assay, were added to the low control wells, on the previously prepared 384-well compound plates, resulting in 5,000 cells/well or 0 cells/well respectively. IFN-γ was added to the remaining cell suspension at a final concentration of 10 nM, and 50 μL of the stimulated cells were added to all remaining wells on the 384-well compound plates. The plates, with lids, were then placed in a 37° C., 5% CO2 humidified incubator for 2 days.
as §3, with “instructions, and 10 μL were” for “instructions, and 40 μL were”

T1 sequence (P14902 whole entry): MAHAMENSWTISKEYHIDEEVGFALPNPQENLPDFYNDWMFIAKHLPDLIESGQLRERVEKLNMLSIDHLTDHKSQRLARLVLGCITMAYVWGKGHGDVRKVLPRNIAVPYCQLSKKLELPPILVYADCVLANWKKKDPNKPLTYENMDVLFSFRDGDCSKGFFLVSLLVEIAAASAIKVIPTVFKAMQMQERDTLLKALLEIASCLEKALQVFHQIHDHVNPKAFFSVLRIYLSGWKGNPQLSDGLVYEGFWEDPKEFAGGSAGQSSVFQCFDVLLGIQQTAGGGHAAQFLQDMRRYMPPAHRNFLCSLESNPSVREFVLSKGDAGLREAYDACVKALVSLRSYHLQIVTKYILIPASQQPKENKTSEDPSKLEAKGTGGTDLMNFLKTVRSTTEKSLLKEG

Usually EC50 stands for the concentration that produces a half-maximal response. A low value points to an effect from little substance. As to `CC(C)CN(c1ccc(C(CC(=O)O)C(F)(F)F)cc1Nc1nc(Cl)ns1)C1CCCCC1` (stereo not drawn) [Example 71, 3-(3-((3-Chloro-1,2,4-thiadiazol-5-yl)amino)-4-(cyclohexyl(isobutyl)amino)phenyl)-4,4,4-trifluorobutanoic Acid], the EC50 in test [1] is 0.794 nM; in test [2] it was 6.31 nM.

`COc1nccc(Nc2cc(C(C)CC(=O)O)ccc2N(CC(C)C)CC(C)C)n1` (stereo not drawn) [Example 12, 3-(4-(diisobutylamino)-3-((2-methoxypyrimidin-4-yl)amino)phenyl)butanoic acid, 2,2,2-trifluoroacetic acid salt]: the EC50 in test [1] was 158 nM; in test [2], 126 nM.

As for `Cc1nc(C(F)(F)F)sc1Nc1cc(C(C)CC(=O)O)ccc1N(CC(C)C)CC(C)C` (stereo not drawn) [Example 60, 3-(4-(diisobutylamino)-3-((4-methyl-2-(trifluoromethyl)thiazol-5-yl)amino)phenyl)butanoic acid], the figures for the EC50 in test [1] and in test [2] were 398 nM and 501 nM, respectively.

As to `CC(C)CN(c1ccc([C@@H](C)CC(=O)O)cc1Nc1nc(Cl)ns1)C1CCCCC1` [Example 39, (S)-3-(3-((3-chloro-1,2,4-thiadiazol-5-yl)amino)-4-(cyclohexyl(isobutyl)amino)phenyl)butanoic acid], the results for the EC50 in test [1] and in test [2] were 1.26 nM and 12.6 nM, respectively.

Consider `CC(C)CN(c1ccc(C(C)CC(=O)O)cc1NC1CCCCC1)C1CCCCC1` (stereo not drawn) [Example 19, 3-(4-(cyclohexyl(isobutyl)amino)-3-(cyclohexylamino)phenyl)butanoic acid], for which the EC50 in test [1] was 50.1 nM; in test [2] it was 100 nM.

As to `CC(C)CN(c1ccc([C@H](C)CC(=O)O)cc1Nc1nc(Cl)ns1)C1CCCCC1` [Example 40, (R)-3-(3-((3-chloro-1,2,4-thiadiazol-5-yl)amino)-4-(cyclohexyl(isobutyl)amino)phenyl)butanoic acid], the values for the EC50 in test [1] and in test [2] were 0.631 nM and 6.31 nM, respectively.

`CC(C)CN(CC(C)C)c1ccc([C@@H](C)CC(=O)O)cc1Nc1nc(C(F)(F)F)ns1` [Example 53, (S)-3-(4-(diisobutylamino)-3-((3-(trifluoromethyl)-1,2,4-thiadiazol-5-yl)amino)phenyl)butanoic acid]: the EC50 in test [1] was 3.16 nM; in test [2], 10 nM.

Turning to `CC(C)CN(CC(C)C)c1ccc(C(C)CC(=O)O)cc1Nc1cnccn1` (stereo not drawn) [Example 58, 3-(4-(diisobutylamino)-3-(pyrazin-2-ylamino)phenyl)butanoic acid], the EC50 in test [1] is 158 nM; in test [2] it was 316 nM.

Take `CC(C)CN(c1ccc(C(C)CC(=O)O)cc1NCc1cccs1)C1CCCCC1` (stereo not drawn) [Example 20, 3-(4-(cyclohexyl(isobutyl)amino)-3-((thiophen-2-ylmethyl)amino)phenyl)butanoic acid]: the EC50 was 50.1 nM in test [1] and 126 nM in test [2].

For `CC(C)CN(CC(C)C)c1ccc(C(C)CC(=O)O)cc1Nc1nc(C(F)(F)F)ns1` (stereo not drawn) [Example 34, 3-(4-(diisobutylamino)-3-((3-(trifluoromethyl)-1,2,4-thiadiazol-5-yl)amino)phenyl)butanoic acid], the EC50 is 5.01 nM in test [1] and 3.98 nM in test [2].

For `CC(C)CN(c1ccc([C@H](C)CC(=O)O)cc1Nc1ccnc(Cl)n1)C1CCCCC1` [Example 63, (R)-3-(3-((2-chloropyrimidin-4-yl)amino)-4-(cyclohexyl(isobutyl)amino)phenyl)butanoic acid], the EC50 in test [1] is 20 nM; in test [2], 31.6 nM.

As to `CC(C)CN(CC(C)C)c1ccc(C(C)CC(=O)O)cc1Nc1ccncc1` (stereo not drawn) [Example 18, 3-(4-(diisobutylamino)-3-(pyridin-4-ylamino)phenyl)butanoic acid], the EC50 in test [1] is 200 nM; in test [2], 316 nM.

For `CC(C)CN(c1ccc(C(C)CC(=O)O)cc1NC1=N[C@H](C(F)(F)F)CS1)C1CCCCC1` (stereo partly drawn) [Example 75, 3-(4-(Cyclohexyl(isobutyl)amino)-3-(((R)-4-(trifluoromethyl)-4,5-dihydrothiazol-2-yl)amino)phenyl)butanoic Acid], the EC50 in test [1] was 63.1 nM; in test [2], 31.6 nM.

Regarding `CC(C)CN(c1ccc([C@H](C)CC(=O)O)cc1Nc1nc(C(F)(F)F)cs1)C1CCCCC1` [Example 49, (R)-3-(4-(cyclohexyl(isobutyl)amino)-3-((4-(trifluoromethyl)thiazol-2-yl)amino)phenyl)butanoic acid], the EC50 in test [1] is 0.794 nM; in test [2] it was 3.16 nM.

Turning to `CC(C)CN(c1ccc(C(C)CC(=O)O)cc1NCc1nccs1)C1CCCCC1` (stereo not drawn) [Example 21, 3-(4-(cyclohexyl(isobutyl)amino)-3-((thiazol-2-ylmethyl)amino)phenyl)butanoic acid], the EC50 in test [1] is 251 nM; in test [2], 501 nM.
